Data set [1] is described as follows: Glucose/Ketone Index (GKI). The format is in vivo, human. As for the experimental part:
Introducing GKI: Measuring Glucose vs Ketones. FIG. 8 is a schematic illustration of the Glucose/Ketone Index. When measuring both blood ketone levels and blood glucose levels, taking reference from the Glucose/Ketone Index (GKI) can help guide a user to achieve therapeutic benefits according to the claimed invention. The Glucose/Ketone Index is measured by dividing the blood level of glucose by the blood level of ketones measured in mmol/L. By way of illustration, a healthy individual not following the ketogenic diet could have glucose levels of 5.0 mmol/L and ketone levels of 0.1 mmol/L. According to the GKI they would have a value of greater than 9 and as such would not be in ketosis. An individual following the ketogenic diet and potentially supplementing their diet with ketone salts or MCT oil may have a glucose level of 5.6 mmol/L and ketone level of 1.3 mmol/L, resulting in a GKI of 4.3. This moderate ketosis level can be useful for managing obesity and diabetes.
(§1) FIG. 9 is a graphical illustration of blood levels of ketones and glucose resulting from the claimed invention. In the graphical illustration, body ketone levels increase from 1.4 mmol/L to 2.7 mmol/L after 50 minutes of consuming 10 g of D-BHB. […]

The nature of data set [2]: Anti-depression and anti-anxiety mood enhancement. The format is in vivo. Conditions: in the absence of anti-depressant and/or anti-anxiety medication; at least 10 g at least twice per day. An excerpt: FIG. 18 is a graphical illustration of improved mental anti-depression and anti-anxiety activity resulting from enhanced D-BHB levels according to the claimed invention. […] While preferred consumption of natural D-BHB can range from 10 g-30 g of natural D-BHB, a best illustrative example reflects at least 10 g exogenous D-BHB supplementation at least twice per day.

Data set [3] is described as follows: Bone density measurements during D-BHB consumption. The format is in vivo. Particulars: 10 g daily; period during which bone loss was expected. An excerpt:
FIG. 20 is a graphical illustration of sustained bone protection resulting from enhanced D-BHB levels according to the claimed invention. Loss of bone density can be statistically predicted and measured during specific time of life events such as post-menopause as well as during space missions for astronauts in space. […] Similar benefits against bone loss for space based applications are indicated and expected with consumption of 20 g of exogenous D-BHB daily.

Data set [4] is described as follows: Blood ketone levels after exogenous ketone supplementation. The format is in vivo, human.
Text: Technical effect: raising blood ketone levels by currently known methods. FIG. 6 is a graphical illustration of exogenous ketone blood levels by three precursors using Medium Chain Triglycerides, ketone salts and ketone esters. […] In the healthy adult, blood ketone levels can be naturally raised from a 0.0 mmol/L baseline to 0.5 mmol/L while following a normal diet.
While MCT oil can raise blood ketone levels for a long duration, often the rise in ketone levels is nominal at best with a 0.5 mmol/L increase. Ketone salts can raise blood ketone levels to 1.5 mmol/L, but often do so with a metabolic load of heavy salt ingestion along with an undesired racemic mixture of both ‘D’ and ‘L’ isomers of BHB. The so called “ketone ester” synthetic products can raise blood ketone levels to 2-4 mmol/L when consumed at 30-35 g of product but the result is often short lasting.
FIG. 7 is a graphical illustration of D-BHB exogenous ketone blood levels.
as §1

Data set [5] can be described thus: Sleep cycles (deep and light sleep time) with D-BHB taken prior to sleep. The format is in vivo. Particulars: over several sleep cycles. An excerpt: During deep sleep, a variety of functions take place in the mind and body. During deep sleep not only does physical recovery occur. The brain recuperates as well during which memories are consolidated and learning and emotions are processed. Physiologically, blood sugar levels and metabolism balance out and the immune system is energized. FIG. 11 is a graphical illustration of improved sleep time resulting from enhanced D-BHB levels according to the claimed invention based on the data detailed in Table 1.
The data gathered in Table 1 reflects unaided sleep cycles in bold together with sleep aided by 10-20 g D-BHB which is reflective of a preferred embodiment of the claimed invention. On average, unaided sleep results in approximately 1.5 hours of deep sleep in an eight hour sleep cycle. […] In a preferred and foreseen embodiment of the claimed invention, improved deep sleep is achieved as a result of exogenous ketone D-BHB supplementation.

Data set [6] can be described thus: Systolic and diastolic blood pressure after D-BHB ingestion. Conditions: 10 g; measurable within an hour, remains several hours. The format is in vivo. An excerpt: FIG. 12 is a graphical illustration of improved blood pressure resulting from enhanced D-BHB levels according to the claimed invention. In addition to increasing blood ketones and lowering blood glucose, consumption of exogenous D-BHB according to the claimed invention also has a direct and measurable impact on lowering blood pressure. […] Blood pressure reduction is measurable within an hour of ingestion and is positive effects of lower blood pressure remain for several hours afterwards.

Data set [7] is described as follows: Sensation of hunger after waking. The format is in vivo. Particulars: several hours after rising in the morning. From the text: FIG. 15 is a graphical illustration of lowered hunger resulting from enhanced D-BHB levels according to the claimed invention. While the sensation of hunger itself arises from a complex interplay of glucose, insulin and the hormone ghrelin, identification and measurement of hunger is easy and straightforward according to the claimed invention. Hunger is often a key reason why diet attempts such as attempting to follow the ketogenic diet or other diets fail. Hunger is also a significant impediment to individuals attempting to undergo a fasting state for health or other purposes. While even consuming a moderate amount such as 5 g of exogenous natural D-BHB ketone supplement can reduce the sensation of hunger, regular consumption of larger amounts such as 10 g-20 g represent a preferred embodiment of the claimed invention. […] Hunger reduction, however, is provided at any time of day according to the claimed invention and is not just morning dependent.

A short description of data set [8]: Physical endurance on a measured exercise course. The format is in vivo. From the text:
FIG. 16 is a graphical illustration of improved physical endurance resulting from enhanced D-BHB levels according to the claimed invention. While understanding of the mechanism of ketone enhancement of physical endurance is only beginning, there is a direct and measurable benefit of consumption of natural D-Beta HydroxyButyric acid to enhance physical exertion and post-exercise activity recovery. FIG. 16 illustrates the physical performance parameter in which a subject with and without natural D-BHB ketone supplementation is impeded by shortness of breath and muscle pain and drop in performance owing to lactic acid build-up in the body. Without natural D-BHB ketone supplementation on a measured exercise course pain and fatigue will occur after 27 minutes. […] While preferred consumption of natural D-BHB can range from 10 g-30 g of natural D-BHB, lesser or greater amounts may also be safely consumed for exercise improvement and benefits.

Data set [9] in a line: Gout pain and inflammation. The format is in vivo. An excerpt: FIG. 21 is a graphical illustration of gout reduction resulting from enhanced D-BHB levels according to the claimed invention. Owing to the role of exogenous natural D-BHB as a regulatory element of the NLRP3 inflammasome, inflammations are reduced as a direct result of exogenous D-BHB supplementation. In a preferred embodiment, 10 g or more of D-Beta HydroxyButyric acid is consumed daily to reduce gout flare-ups.

Data set [10] can be described thus: Blood glucose levels after D-BHB consumption. The format is in vivo, human. As for the experimental part: FIG. 9 is a graphical illustration of blood levels of ketones and glucose resulting from the claimed invention. In the graphical illustration, body ketone levels increase from 1.4 mmol/L to 2.7 mmol/L after 50 minutes of consuming 10 g of D-BHB. While ketone levels increase, glucose levels are decreased from 5.2 mmol/L to 4.8 mmol/L. While blood ketone rates can change rapidly as ketones are consumed through exercise or metabolic activity, the lowering of glucose often happens over a prolonged period of time. Consequently, this example is a good introduction to the regulatory effects of the ketone body D-BHB which are independent of and often outlast the energy benefits provided by exogenous ketones even after they are consumed by the body.
FIG. 14 is a graphical illustration of lowered blood glucose measured in mmol/L as a result of daily 10 g consumption resulting from enhanced D-BHB levels according to the claimed invention. Diet plays a key role in the onset and progression of Type II diabetes and pre-diabetic conditions. The hallmark indication of the progression of this disease is identified through measurement of blood glucose levels. […] In a preferred embodiment 10-20 g of D-BHB are consumed, but more or less can be utilized in other embodiments of the claimed invention.

The nature of data set [11]: Blood oxygen levels before and after D-BHB. The format is in vivo. Conditions: 30 minutes after 10 g; from 80%. An excerpt: FIG. 13 is a graphical illustration of enhanced blood oxygen resulting from enhanced D-BHB levels according to the claimed invention.
The subject of data set [12] is HDAC. Conditions: cited from earlier work.
The conditions of data set [13]: consumed at 30-35 g of product; short lasting; cited from earlier work.
The conditions of data set [14]: 750 mg/kg by gavage 24 hours after 0.5 or 6 Gy radiation; cited from earlier work.

The values that follow come from patent publication US20210322350A1, “EXOGENOUS KETONE SUPPLEMENTATION COMPOSITIONS, SYSTEMS AND METHODS” (Ketone Clarity LLC, priority 2020, published 2021).

A value given as a limit tells only on which side of the number the result lay.

Take `CC(O)CC(=O)O` [D-BHB, D-Beta-HydroxyButyric Acid]: in data set [1] (after consuming 10 g), the “Glucose/Ketone Index (GKI)” value stood at 1.8. Further, the GKI levels in data set [1] (regular D-BHB consumption) is given as 1-3. Further, the cognitive mood enhancement entry in [2] is given as “cognitive improvement”. For the same molecule, the bone density result in data set [3] was “bone density health and retention”. The body ketone level in data set [4] (50 minutes after consuming 10 g, from 1.4 mmol/L) is 2.7 mmol/L. For the same molecule, the “blood ketone levels versus existing methods” value in [4] (consumption of 10-30 g) was “higher blood ketone levels”. The “extension of deep sleep” value in [5] is reported as “extended by over an hour”. Besides, the “systolic and diastolic blood pressure” value in [6] is listed as “measurable decrease”. Also, the sensation of hunger entry in [7] is listed as “greater reduction to even omission of hunger sensations”. In data set [8], the post-workout recovery time result is “markedly reduced”. For the same molecule, the “range of performance before pain and fatigue” value in [8] (27 minutes without supplementation) was 44 min. In addition, the gout pain result in data set [9] (15 g, in three days) was “from extreme to very moderate”. Besides, the gout inflammation result in data set [9] (continued daily consumption, in less than one week) is reported as “entirely removed gout inflammation”. Besides, the glucose level in data set [10] (after consuming 10 g, from 5.2 mmol/L) is 4.8 mmol/L. The same molecule came in with a blood glucose level in data set [10] (daily 10 g consumption, baseline over 7 mmol/L) of no more than 4 mmol/L. In [11], this molecule had a blood oxygen level of 99%.
In the case of `CC(O)CC(=O)[O-].[Na+]` (centres unmarked) [b-OHB], the renal dysfunction entry in data set [12] (IR-injured kidney) is “ameliorated renal dysfunction”. In data set [12], the “HDAC activity in the IR-injured kidney” value was “inhibited HDAC activity”.
`C[C@@H](O)CCOC(=O)C[C@@H](C)O` [ketone ester, (R)-3-hydroxybutyl (R)-3-hydroxybutyrate]: the “blood ketone levels raised to” value in [13] was 2 to 4 mmol/L. The “radiation-induced decrease of reticulocyte/erythrocyte ratio in bone marrow” value in data set [14] is listed as “significantly attenuated”.
